Patent US9133195B2, “Quaternary ammonium salt compounds of spirocyclopiperazines, preparation methods and uses thereof” (Peking University, priority 2006, dated 2015)
Like-named read-outs stand apart in the source and are kept apart here.

Tests used:
Acute toxicity test = settings: in vivo, sc
Procedure: (§1) All the following tests were carried out by using compound LXM-10 according to the routine methods.

mice [1] = assay: Hot-plate test; format: in vivo; settings: for pain threshold elevated rate (PTE %): at 2.0 h, 55° C. hot-plate; for ED50: Mus musculus, sc
Procedure: The temperature of the hot-plate was adjusted to 55° C. With licking hind paws and jumping as observation index, the time from placing of the animal on the hot plate to observation the above reactions was recorded as latency time, Latency time was measured for three times and calculated their mean value as Basal threshold or Baseline latency (BL), Mice with latency time of less than 5 s or more than 10 s were eliminated from the study. The remaining mice were divided into 8 groups, and 10 mice in each group. The following groups were established: the normal saline control group (NS), in which normal saline was administered (s.c.); the morphine control group (Mor), in which morphine was administered (s.c.) at the dose of 10.0 mg/kg; and compound LXM-10 groups, in which compound LXM-10 were administered (s.c.) at the dose of 0.75, 1.5, 3.0, 6.0, 12.0 and 24.0 mg/kg. All drugs were dissolved in normal saline before use. The drugs injected at the dose of 0.1 ml/10 g. The latency times were measured at 1.0, 1.5, 2.0, and 3.0 h after administering LXM-10. The cut-off time was set at 30 s to avoid skin scald. The percentage of pain threshold elevated rate (PTE %) was determined by using the following formula (2): PTE %=(The latency time of drug injection group−the latency time of control group at the corresponding time point)/the latency time of control group at the corresponding time point×100% (2)
To judge whether LXM-10 was effective as analgesic using this criterion: at the peak time point of this compound, the latency times of each compound LXM-10 group was greater than the mean latency time of normal saline control group at the corresponding time point plus three times of standard deviation. The effective percentage of each group was calculated made data conversion, then calculated the analgesic ED50 and 95% confidence interval (CI) in accordance with the formulae (3) and (4) using General Method for Calculating.
Wherein, Xm represents the logarithm value of the largest dose, i refers to group interval, ΣP refers to the sum of each group's efficiency, ΣP^2 represents the square sum of each group's efficiency, n refers to numbers of experimental groups.

mice [2] = assay: Addiction test (tail-erected response); format: in vivo; settings: doses of 6.0, 12.0, 24.0 or 445.0 mg/kg
Procedure: as §1
They are quiet and normal.

Body temperature in mice = format: in vivo; settings: for Rectal temperature: before treatment
Procedure: as §1

mice [3] = assay: Function of motion coordination (rota-rod); format: in vivo; settings: for Time of falling down from rota-rod: before treatment
Procedure: as §1
The effect of muscle-relaxed effect on the analgesic effect of LXM-10 was also excluded.

Kunming mice [4] = assay: Acetic acid-induced writhing test; format: in vivo; settings: 0.5 h after s.c. administration
mice [5] = assay: Spontaneous motion in mice; format: in vivo; settings: for Numbers of movement: before treatment
Procedure: as §1

ICR mice = assay: Formalin test; format: in vivo; settings: 0.5 h after s.c., dose not stated
Procedure: Sixty ICR mice, male and female in half, were divided into six groups with 10 mice in each group. The following groups were established: the normal saline (NS) control group, in which normal saline was administered by s.c.; the aspirin control group, in which aspirin was administered by i.g. at the dose of 300 mg/kg; the morphine control, group, in which morphine was administered (s.c.) at the dose of 10.0 mg/kg; and compound LXM-10 groups, in which compound LXM-10 were administered (s.c.) at the dose of 0.75, 1.5, 3.0 and 6.0 mg/kg. All drugs were dissolved in normal saline before use. The drugs injected at the dose of 0.1 ml/10 g. 30 min after administration, animals were administered 20 ul of 2.5% formalin solution on the right front paws. The licking times were recorded immediately in the duration of 0˜5 minutes as phase I reaction; After 20 minutes, the licking times were recorded in the duration of 20˜25 minutes as phase II reaction. The percentage of pain inhibition (%) was determined by using the following formula (5): Pain inhibition %=[(The licking time of normal saline control group−the licking time of drug injection group)/the licking time of normal saline control group]×100% (5) 2. Experimental Results

Kunming mice [6] = assay: Acetic acid-induced writhing test; format: in vivo; settings: Mus musculus, sc; 31.0 umol/kg s.c.; acetic acid i.p. after 30 min; writhing counted for 10 min
Procedure: Kunming mice, male and female in half, were randomly divided into groups with 8 mice in each group. The following groups were established: the normal saline (NS) control group, in which normal saline was administered by subcutaneous injection (s.c.); the test groups, in which 31.0 umol/kg quaternary ammonium salts compounds of piperazines of the present invention was administered by s.c. All drugs were dissolved in normal saline before use. The drug was injected at the dose of 0.1 ml/10 g. After 30 min, 0.2 ml of 0.6% acetic acid was injected intraperitoneally for each mouse. After 2˜3 min, the writhing reactions such as abdominal constriction, stretch of body and hind limbs, and hip raise occurred. Five minutes after acetic acid injection, the numbers of writhing was counted for 10 min. The percentage of inhibition was determined by using the following formula (1): Inhibition %=[(The numbers of writhing of control group−the numbers of writhing of drag injection group)/the numbers of writhing of control group]×100% (1) 2 Experimental Results
This experiment was carried out according to that of Example 36.

CC1C[N+]2(CCN(CCc3ccccc3)CC2)CC(C)O1 (stereo not drawn) [LXM-10, 2,4-dimethyl-9-β-phenylethyl-3-oxo-6,9-diazaspiro[5.5]undecane chloride]
LD50 (Acute toxicity test; read-out: LD50): 514 mg/kg | LD50 (Acute toxicity test; read-out: LD50 95% confidence interval): 495 to 531 mg/kg | pain threshold elevated rate (PTE %) (mice [1]; 1.5 mg/kg s.c.): 47.5% | pain threshold elevated rate (PTE %) (mice [1]; 3.0 mg/kg s.c.): 54.8% | pain threshold elevated rate (PTE %) (mice [1]; 6.0 mg/kg s.c.): 79.2% | pain threshold elevated rate (PTE %) (mice [1]; 12.0 mg/kg s.c.): 126.8% | ED50 (mice [1]; hot-plate, at peak time, read-out: analgesic ED50): 3.2 mg/kg | ED50 (mice [1]; hot-plate, read-out: ED50 95% confidence interval): 1.8 to 5.4 mg/kg | analgesic effect persisted to (mice [1]; s.c., hot-plate): 3.0 h | onset time of analgesic effect (mice [1]; s.c., hot-plate): 1.0 h | peak time of analgesic effect (mice [1]; s.c., hot-plate): 2.0 h | tail-erected response (mice [2]): no tail-erected response | Rectal temperature after treatment (Body temperature in mice; 6.0 mg/kg, 0.5 h): 37.3 ± 0.35 °C | Rectal temperature after treatment (Body temperature in mice; 6.0 mg/kg, 2.0 h): 37.3 ± 0.28 °C | Rectal temperature after treatment (Body temperature in mice; 6.0 mg/kg, 3.5 h): 37.5 ± 0.29 °C | Rectal temperature (Body temperature in mice; 6.0 mg/kg): 37.7 ± 0.34 °C | Rectal temperature after treatment (Body temperature in mice; 12.0 mg/kg, 0.5 h): 37.0 ± 0.26 °C | Rectal temperature after treatment (Body temperature in mice; 12.0 mg/kg, 2.0 h): 37.1 ± 0.24 °C | Rectal temperature after treatment (Body temperature in mice; 12.0 mg/kg, 3.5 h): 37.1 ± 0.20 °C | Rectal temperature (Body temperature in mice; 12.0 mg/kg): 37.1 ± 0.09 °C | Rectal temperature after treatment (Body temperature in mice; 24.0 mg/kg, 0.5 h): 37.5 ± 0.21 °C | Rectal temperature after treatment (Body temperature in mice; 24.0 mg/kg, 2.0 h): 37.0 ± 0.19 °C | Rectal temperature after treatment (Body temperature in mice; 24.0 mg/kg, 3.5 h): 37.3 ± 0.16 °C | Rectal temperature (Body temperature in mice; 24.0 mg/kg): 37.0 ± 0.18 °C | effect on body temperature (Body temperature in mice; 6.0, 12.0, 24.0 mg/kg): did not affect | Time of falling down from rota-rod after treatment (mice [3]; 6.0 mg/kg, 0.5 h): 106.5 ± 8.88 s | Time of falling down from rota-rod after treatment (mice [3]; 6.0 mg/kg, 2.0 h): 110.0 ± 5.17 s | Time of falling down from rota-rod after treatment (mice [3]; 6.0 mg/kg, 3.5 h): 116.2 ± 3.75 s | Time of falling down from rota-rod (mice [3]; 6.0 mg/kg): 96.7 ± 9.17 s | Time of falling down from rota-rod after treatment (mice [3]; 12.0 mg/kg, 0.5 h): 109.6 ± 10.3 s | Time of falling down from rota-rod after treatment (mice [3]; 12.0 mg/kg, 2.0 h): 109.3 ± 8.15 s | Time of falling down from rota-rod after treatment (mice [3]; 12.0 mg/kg, 3.5 h): 119.6 ± 0.38 s | Time of falling down from rota-rod (mice [3]; 12.0 mg/kg): 96.6 ± 8.93 s | Time of falling down from rota-rod after treatment (mice [3]; 24.0 mg/kg, 0.5 h): 112.7 ± 5.18 s | Time of falling down from rota-rod after treatment (mice [3]; 24.0 mg/kg, 2.0 h): 117.5 ± 2.50 s | Time of falling down from rota-rod after treatment (mice [3]; 24.0 mg/kg, 3.5 h): 119.0 ± 1.00 s | Time of falling down from rota-rod (mice [3]; 24.0 mg/kg): 101.2 ± 9.15 s | effect on function of motion coordination (mice [3]; 6.0, 12.0, 24.0 mg/kg): did not significantly affect | percentage of pain inhibition (Kunming mice [4]; 1.5 mg/kg): 63.4% | percentage of pain inhibition (Kunming mice [4]; 3.0 mg/kg): 78.8% | percentage of pain inhibition (Kunming mice [4]; 6.0 mg/kg): 79.2% | percentage of pain inhibition (Kunming mice [4]; 12.0 mg/kg): 55.6% | Numbers of movement after treatment (mice [5]; 6.0 mg/kg, 0.5 h): 46.6 ± 2.63 | Numbers of movement after treatment (mice [5]; 6.0 mg/kg, 2.0 h): 42.3 ± 3.38 | Numbers of movement after treatment (mice [5]; 6.0 mg/kg, 3.5 h): 48.0 ± 5.00 | Numbers of movement (mice [5]; 6.0 mg/kg): 46.8 ± 1.96 | Numbers of movement after treatment (mice [5]; 12.0 mg/kg, 0.5 h): 48.0 ± 6.21 | Numbers of movement after treatment (mice [5]; 12.0 mg/kg, 2.0 h): 48.1 ± 6.14 | Numbers of movement after treatment (mice [5]; 12.0 mg/kg, 3.5 h): 48.0 ± 7.85 | Numbers of movement (mice [5]; 12.0 mg/kg): 47.7 ± 2.55 | Numbers of movement after treatment (mice [5]; 24.0 mg/kg, 0.5 h): 43.5 ± 4.21 | Numbers of movement after treatment (mice [5]; 24.0 mg/kg, 2.0 h): 45.5 ± 6.05 | Numbers of movement after treatment (mice [5]; 24.0 mg/kg, 3.5 h): 46.6 ± 3.69 | Numbers of movement (mice [5]; 24.0 mg/kg): 50.2 ± 2.31 | effect on spontaneous motion (mice [5]; 6.0, 12.0, 24.0 mg/kg): did not significantly affect | percentage of pain inhibition, Phase II (ICR mice; first of three values): 67.0% | percentage of pain inhibition, Phase II (ICR mice; second of three values): 69.6% | percentage of pain inhibition, Phase II (ICR mice; third of three values): 50.0% | inhibition in vivo at 31 µmol/kg (Kunming mice [6]): 65%
